Patent publication US20240108725A1, “METHOD FOR TREATING CANCER AND SYSTEM FOR SAME” (OTSUKA MEDICAL DEVICES CO., LTD, priority 2020, published 2024)

Test system: C6 cells
Assay: Rate of dead cells after 5-ALA PDT in erythrocyte solution, C6 cells, Example 3
Assay type: cell-based, rat
Method: C6 cells or human leukemia cell line TL-Oml cells were cultured in 2.5% FBS/F-12K medium (C6 cells) or 10% FBS/RPMI1640 (TL-Oml cells) supplemented with 5-ALA to a final concentration of 0.125 to 0.5 mM in a 5% CO2 incubator at 37° C. for 4 hours. After the culture, the cells were removed with a 0.25% trypsin-EDTA solution, and the collected cells were adjusted to 2×10^7 cells/mL with an erythrocyte solution (a solution in which erythrocytes and PBS were mixed at a ratio of 45:55). The cell suspension thus prepared was injected into a Tygon tube (inner diameter: 0.79 mm), wrapped around a light irradiator, and irradiated with light having a wavelength of 630 nm so that the irradiation energy density was 0.5 to 500 J/cm^2. After the irradiation, an ammonium chloride solution was added to the cell suspension to hemolyze the erythrocytes. Cells before the PDT treatment, after the PDT treatment, and after 24-hour culture were stained with the FITC Annexin V Apoptosis Detection Kit I and the rate of dead cells was analyzed with a flow cytometer.

[1] = 5-ALA 0.125 mM, 20 J/cm^2, 24 hours after irradiation
[2] = 5-ALA 0.125 mM, 20 J/cm^2, immediately after irradiation
[3] = 5-ALA 0.125 mM, 50 J/cm^2, 24 hours after irradiation
[4] = 5-ALA 0.125 mM, 50 J/cm^2, immediately after irradiation
[5] = 5-ALA 0.125 mM, 100 J/cm^2, 24 hours after irradiation
[6] = 5-ALA 0.125 mM, 100 J/cm^2, immediately after irradiation
[7] = 5-ALA 0.125 mM, 400 J/cm^2, 24 hours after irradiation
[8] = 5-ALA 0.125 mM, 400 J/cm^2, immediately after irradiation
[9] = 5-ALA 0.125 mM, 500 J/cm^2, 24 hours after irradiation
[10] = 5-ALA 0.125 mM, 500 J/cm^2, immediately after irradiation
[11] = 5-ALA 0.25 mM, 2.5 J/cm^2, 24 hours after irradiation
[12] = 5-ALA 0.25 mM, 2.5 J/cm^2, immediately after irradiation
[13] = 5-ALA 0.25 mM, 5 J/cm^2, 24 hours after irradiation
[14] = 5-ALA 0.25 mM, 5 J/cm^2, immediately after irradiation
[15] = 5-ALA 0.25 mM, 250 J/cm^2, 24 hours after irradiation
[16] = 5-ALA 0.25 mM, 250 J/cm^2, immediately after irradiation
[17] = 5-ALA 0.25 mM, 300 J/cm^2, 24 hours after irradiation
[18] = 5-ALA 0.25 mM, 300 J/cm^2, immediately after irradiation
[19] = 5-ALA 0.25 mM, 350 J/cm^2, 24 hours after irradiation
[20] = 5-ALA 0.25 mM, 350 J/cm^2, immediately after irradiation
[21] = 5-ALA 0.5 mM, 0.5 J/cm^2, 24 hours after irradiation
[22] = 5-ALA 0.5 mM, 0.5 J/cm^2, immediately after irradiation
[23] = 5-ALA 0.5 mM, 1 J/cm^2, 24 hours after irradiation
[24] = 5-ALA 0.5 mM, 1 J/cm^2, immediately after irradiation
[25] = 5-ALA 0.5 mM, 2.5 J/cm^2, 24 hours after irradiation
[26] = 5-ALA 0.5 mM, 2.5 J/cm^2, immediately after irradiation
[27] = 5-ALA 0.5 mM, 100 J/cm^2, 24 hours after irradiation
[28] = 5-ALA 0.5 mM, 100 J/cm^2, immediately after irradiation
[29] = 5-ALA 0.5 mM, 350 J/cm^2, 24 hours after irradiation
[30] = 5-ALA 0.5 mM, 350 J/cm^2, immediately after irradiation
[31] = 5-ALA 0.5 mM, 400 J/cm^2, 24 hours after irradiation
[32] = 5-ALA 0.5 mM, 400 J/cm^2, immediately after irradiation
[33] = 5-ALA 0.5 mM, 500 J/cm^2, 24 hours after irradiation
[34] = 5-ALA 0.5 mM, 500 J/cm^2, immediately after irradiation

NCC(=O)CCC(=O)O [5-ALA, 5-aminolevulinic acid]
Annexin V+/PI+ (%) [1]: 2%
Annexin V+/PI− (%) [1]: 3%
Annexin V-/PI− (%) [1]: 95%
Annexin V+/PI+ (%) [2]: 2%
Annexin V+/PI− (%) [2]: 1%
Annexin V−/PI− (%) [2]: 97%
Annexin V+/PI+ (%) [3]: 3%
Annexin V+/PI− (%) [3]: 3%
Annexin V-/PI− (%) [3]: 94%
Annexin V+/PI+ (%) [4]: 3%
Annexin V+/PI− (%) [4]: 1%
Annexin V−/PI− (%) [4]: 95%
Annexin V+/PI+ (%) [5]: 4%
Annexin V+/PI− (%) [5]: 4%
Annexin V-/PI− (%) [5]: 92%
Annexin V+/PI+ (%) [6]: 4%
Annexin V+/PI− (%) [6]: 1%
Annexin V−/PI− (%) [6]: 95%
Annexin V+/PI+ (%) [7]: 10%
Annexin V+/PI− (%) [7]: 5%
Annexin V+/PI+ (%) [8]: 6%
Annexin V+/PI− (%) [8]: 1%
Annexin V−/PI− (%) [8]: 93%
Annexin V+/PI+ (%) [9]: 27%
Annexin V+/PI− (%) [9]: 9%
Annexin V+/PI+ (%) [10]: 17%
Annexin V+/PI− (%) [10]: 0%
Annexin V−/PI− (%) [10]: 82%
Annexin V+/PI+ (%) [11]: 2%
Annexin V+/PI− (%) [11]: 5%
Annexin V−/PI− (%) [11]: 93%
Annexin V+/PI+ (%) [12]: 2%
Annexin V+/PI− (%) [12]: 1%
Annexin V−/PI− (%) [12]: 97%
Annexin V+/PI+ (%) [13]: 5%
Annexin V+/PI− (%) [13]: 8%
Annexin V−/PI− (%) [13]: 88%
Annexin V+/PI+ (%) [14]: 3%
Annexin V+/PI− (%) [14]: 1%
Annexin V−/PI− (%) [14]: 96%
Annexin V+/PI+ (%) [15]: 59%
Annexin V+/PI− (%) [15]: 8%
Annexin V−/PI− (%) [15]: 23%
Annexin V+/PI+ (%) [16]: 70%
Annexin V+/PI− (%) [16]: 0%
Annexin V−/PI− (%) [16]: 28%
Annexin V+/PI+ (%) [17]: 86%
Annexin V+/PI− (%) [17]: 4%
Annexin V−/PI− (%) [17]: 10%
Annexin V+/PI+ (%) [18]: 83%
Annexin V+/PI− (%) [18]: 0%
Annexin V−/PI− (%) [18]: 14%
Annexin V+/PI+ (%) [19]: 96%
Annexin V+/PI− (%) [19]: 1%
Annexin V−/PI− (%) [19]: 2%
Annexin V+/PI+ (%) [20]: 91%
Annexin V+/PI− (%) [20]: 0%
Annexin V−/PI− (%) [20]: 6%
Annexin V+/PI+ (%) [21]: 2%
Annexin V+/PI− (%) [21]: 3%
Annexin V−/PI− (%) [21]: 95%
Annexin V+/PI+ (%) [22]: 3%
Annexin V+/PI− (%) [22]: 2%
Annexin V−/PI− (%) [22]: 95%
Annexin V+/PI+ (%) [23]: 2%
Annexin V+/PI− (%) [23]: 3%
Annexin V−/PI− (%) [23]: 95%
Annexin V+/PI+ (%) [24]: 3%
Annexin V+/PI− (%) [24]: 1%
Annexin V−/PI− (%) [24]: 96%
Annexin V+/PI+ (%) [25]: 4%
Annexin V+/PI− (%) [25]: 4%
Annexin V−/PI− (%) [25]: 92%
Annexin V+/PI+ (%) [26]: 4%
Annexin V+/PI− (%) [26]: 1%
Annexin V−/PI− (%) [26]: 94%
Annexin V+/PI+ (%) [27]: 86%
Annexin V+/PI− (%) [27]: 6%
Annexin V−/PI− (%) [27]: 8%
Annexin V+/PI+ (%) [28]: 81%
Annexin V+/PI− (%) [28]: 2%
Annexin V−/PI− (%) [28]: 15%
Annexin V+/PI+ (%) [29]: 92%
Annexin V+/PI− (%) [29]: 4%
Annexin V−/PI− (%) [29]: 3%
Annexin V+/PI+ (%) [30]: 90%
Annexin V+/PI− (%) [30]: 0%
Annexin V−/PI− (%) [30]: 8%
Annexin V+/PI+ (%) [31]: 96%
Annexin V+/PI− (%) [31]: 2%
Annexin V−/PI− (%) [31]: 1%
Annexin V+/PI+ (%) [32]: 94%
Annexin V+/PI− (%) [32]: 0%
Annexin V−/PI− (%) [32]: 5%
Annexin V+/PI+ (%) [33]: 98%
Annexin V+/PI− (%) [33]: 2%
Annexin V−/PI− (%) [33]: 1%
Annexin V+/PI+ (%) [34]: 97%
Annexin V+/PI− (%) [34]: 0%
Annexin V−/PI− (%) [34]: 2%
